Like-named read-outs stand apart in the source and are kept apart here.

These results are taken from paper PMC6921407, “Novel coumarins active against Trypanosoma cruzi and toxicity assessment using the animal model Caenorhabditis elegans” (BMC Pharmacology & Toxicology, 2019).

The test system of series [1] is Trypanosoma cruzi epimastigotes (Tulahuen 2 strain). Kind of series: Anti-Trypanosoma cruzi activity: growth inhibition of epimastigotes (absorbance at 600 nm, day 5). The class given is cell-based. The settings on record: T. cruzi epimastigotes; for GI (%) / percentage of growth inhibition (PGI): test concentration not given. The method, then:
Trypanosoma cruzi epimastigotes (Tulahuen 2 strain) were grown at 28 °C in an axenic milieu (BHI-Tryptose) supplemented with 5% fetal bovine serum (FBS), as previously described. Cells from a 10-day-old culture (stationary phase) were inoculated into 50 mL of fresh culture milieu to give an initial concentration of 1 × 10^6 cells per mL. Cell growth was followed by measuring the absorbance of the culture at 600 nm every day. Before inoculation, the milieu was supplemented with a given amount of the coumarin from a freshly prepared stock solution in DMSO (25 mM). The final concentration of DMSO in the culture medium never exceeded 0.4%, and the control was run in the presence of 0.4% DMSO and in the absence of drugs. […] Nifurtimox (Nfx) was used as the reference trypanocidal drug. The percentage of growth inhibition (PGI) was calculated as follows: PGI (%) = {1 - [(Ap - A0p) / (Ac - A0c)]} × 100, where Ap = […] of the culture containing the studied compound at day 5; […] = […] of the culture containing the studied compound just after addition of the inocula (day 0); Ac = […] of the culture in the absence of the studied compound (control) at day 5; […] = […] in the absence of the studied compound at day 0. […] At day 5, the absorbance of the culture was measured and related to the control.

[2] abbreviates: Trypanosoma cruzi, TULAHUEN, 120 h, read-out: IC50.

What is called IC50 is the concentration at which inhibition is half-maximal. Usually melting point stands for the temperature of the solid-liquid transition. On to `CCc1ccc2oc(=O)cc(CN3CCC(c4ccccc4)CC3)c2c1` [11n], for which the melting point is 118 to 120 °C. Besides, in series [1], the “GI (%) / percentage of growth inhibition (PGI)” value was 26.7 ± 4.0%. Also, in series [1] (setting [2]), the IC50 came to 30.3 ± 0.9 µM.
Take `O=c1cc(CNc2ccc(Cl)cc2)c2cc(Cl)ccc2o1` [9c]: the melting point fell in the range of 205 to 207 °C. The “GI (%) / percentage of growth inhibition (PGI)” value in series [1] is reported as less than 20.4%. In series [1] (setting [2]), the IC50 is greater than 100 µM.
For `Cc1ccc(NCc2cc(=O)oc3ccc(Cl)cc23)cc1` [9b], in that order: 201 °C, less than 20.7% and greater than 100 µM.
As to `Cc1ccc2oc(=O)cc(CN3CCCCC3)c2c1` [10i], in series [1], the “GI (%) / percentage of growth inhibition (PGI)” value was less than 15.9%. Moreover, the IC50 in series [1] (setting [2]) was greater than 100 µM.
`CCc1ccc2oc(=O)cc(CNc3ccccc3)c2c1` [11a] had a melting point of 91 to 93 °C. For the same compound, in series [1], the “GI (%) / percentage of growth inhibition (PGI)” value is 35.7 ± 0.7%. For the same compound, the IC50 in series [1] (setting [2]) is 27.7 ± 1.3 µM.
The compound `Cc1ccc2oc(=O)cc(CN3CCNCC3)c2c1` [10j] yielded a melting point greater than 300 °C. In addition, in series [1], the IC50 entry was “Inactive” and the “GI (%) / percentage of growth inhibition (PGI)” value was “Inactive”.
`O=c1cc(CNc2ccc(Br)cc2)c2cc(Cl)ccc2o1` [9d]: the melting point lay in the range of 231 to 232 °C. Moreover, in series [1], the “GI (%) / percentage of growth inhibition (PGI)” value is listed as 1.9 ± 0.8%. The IC50 in series [1] (setting [2]) was greater than 100 µM.
`Cc1ccc2oc(=O)cc(CN3CCC(c4ccccc4)CC3)c2c1` [10n] showed a melting point of 106 to 107 °C. The “GI (%) / percentage of growth inhibition (PGI)” value in series [1] is recorded as less than 62.7%. Besides, the IC50 in series [1] (setting [2]) turned out to be 13.2 ± 2.6 µM.
For `CCc1ccc2oc(=O)cc(CN3CCSCC3)c2c1` [11l] the same measures were 134 to 135 °C, 72.9 ± 0.4% and greater than 10 µM.
Turning to `O=c1cc(CN2CCSCC2)c2cc(Cl)ccc2o1` [9l], the melting point lay within 152 to 153 °C. Also, the “GI (%) / percentage of growth inhibition (PGI)” value in series [1] is on record as 29 ± 0.4%. Moreover, the IC50 in series [1] (setting [2]) is greater than 100 µM.
For `Cc1ccc(NCc2cc(=O)oc3ccc(C)cc23)cc1` [10b], in that order: 188 to 189 °C, 29.9 ± 0.9% and greater than 100 µM.
For `Cc1ccc2oc(=O)cc(CN(C)c3ccc(Cl)cc3)c2c1` [10h], in that order: 173 to 174 °C, less than 59.2% and greater than 25 µM.
For `O=c1cc(CN2CCNCC2)c2cc(Cl)ccc2o1` [9j] the same measures were greater than 300 °C, less than 23.6% and greater than 31 µM.
On to `O=c1cc(CN2CCCCC2)c2cc(Cl)ccc2o1` [9i], for which the melting point fell in the range of 181 to 182 °C. Further, the “GI (%) / percentage of growth inhibition (PGI)” value in series [1] is 15.9 ± 0.9%. In series [1] (setting [2]), the IC50 is greater than 100 µM.
For `CCc1ccc2oc(=O)cc(CNc3ccc(Cl)cc3)c2c1` [11c] the same measures were 171 to 173 °C, 67.6 ± 2.7% and 11.2 ± 1.7 µM.
`O=c1cc(CNc2ccccc2)c2cc(Cl)ccc2o1` [9a]: the melting point lay within 187 to 188 °C. Further, in series [1] (read-out: IC50), the IC50 was less than 10 µM. Further, in series [1] (setting [2]), the IC50 amounted to 9.1 ± 1.6 µM.
On to `Cc1ccc2oc(=O)cc(CN3CCOCC3)c2c1` [10k], for which the melting point was in the range of 99 to 100 °C. Besides, in series [1], the IC50 entry is on record as “Inactive” and the “GI (%) / percentage of growth inhibition (PGI)” value is “Inactive”.
`Cc1ccc2oc(=O)cc(CNc3ccccc3)c2c1` [10a]: the melting point fell in the range of 164 to 165 °C. In series [1], the “GI (%) / percentage of growth inhibition (PGI)” value turned out to be 38.5 ± 2.6%. In series [1] (setting [2]), the IC50 was greater than 100 µM.
For `Cc1cc(C)cc(NCc2cc(=O)oc3ccc(C)cc23)c1` [10f], in that order: 179 to 180 °C, 32.5 ± 0.9% and greater than 100 µM.
Take `Cc1ccc2oc(=O)cc(CN3CCSCC3)c2c1` [10l]: the melting point was 121 to 122 °C. In addition, in series [1], the IC50 result was “Inactive” and the “GI (%) / percentage of growth inhibition (PGI)” value was “Inactive”.
Turning to `CC1CS(=O)(=O)CCN1/N=C/c1ccc([N+](=O)[O-])o1` (centres unmarked) [Nifurtimox, reference compound], the IC50 in series [1] (setting [2]) is 5 ± 1 µM.
`CCc1ccc2oc(=O)cc(CNc3ccc(Br)cc3)c2c1` [11d] registered a melting point of 184 to 186 °C. Further, in series [1], the “GI (%) / percentage of growth inhibition (PGI)” value is less than 21.9%. For the same compound, the IC50 in series [1] (setting [2]) was determined as 35.4 ± 2.1 µM.
For `O=c1cc(CN2CCC(c3ccccc3)CC2)c2cc(Cl)ccc2o1` [9n], in that order: 163 to 164 °C, less than 51.5% and greater than 25 µM.
In the case of `CCc1ccc2oc(=O)cc(CN3CCOCC3)c2c1` [11k], the melting point is 110 to 113 °C. In addition, the “GI (%) / percentage of growth inhibition (PGI)” value in series [1] is given as 57.6 ± 3.4%. Moreover, the IC50 in series [1] (setting [2]) came to 22.7 ± 3.1 µM.
Take `Cc1ccc2oc(=O)cc(CNc3ccc(Cl)cc3)c2c1` [10c]: the melting point fell in the range of 180 to 181 °C. The “GI (%) / percentage of growth inhibition (PGI)” value in series [1] came to 18.5 ± 1.8%. In series [1] (setting [2]), the IC50 was greater than 100 µM.
For `CCc1ccc2oc(=O)cc(CN3CCCCC3)c2c1` [11i], in that order: 96 to 98 °C, less than 71.4% and 13.9 ± 2.8 µM.
In turn, `COc1ccc(NCc2cc(=O)oc3ccc(Cl)cc23)cc1` [9e] gave a melting point of 192 to 194 °C. Also, the “GI (%) / percentage of growth inhibition (PGI)” value in series [1] is recorded as less than 29.3%. Further, in series [1] (setting [2]), the IC50 is greater than 100 µM.
For `CCc1ccc2oc(=O)cc(CN3CCS(=O)(=O)CC3)c2c1` [11m] the same measures were 175 to 177 °C, less than 10.2% and greater than 100 µM.
For `CCc1ccc2oc(=O)cc(CNc3ccc(OC)cc3)c2c1` [11e] the same measures were 151 to 152 °C, less than 52.5% and greater than 25 µM.
For `COc1ccc(NCc2cc(=O)oc3ccc(C)cc23)cc1` [10e] the same measures were 169 to 170 °C, 53.2 ± 1.3% and greater than 25 µM.
Turning to `CCc1ccc2oc(=O)cc(CNc3ccc(C)cc3)c2c1` [11b], the melting point was in the range of 171 to 172 °C. The “GI (%) / percentage of growth inhibition (PGI)” value in series [1] is less than 39.5%. In addition, in series [1] (setting [2]), the IC50 is greater than 25 µM.
The compound `CN(Cc1cc(=O)oc2ccc(Cl)cc12)c1ccccc1` [9g] yielded a melting point of 200 to 201 °C. The IC50 in series [1] (setting [2]) amounted to 14.2 ± 1.9 µM.
In turn, `CCc1ccc2oc(=O)cc(CN3CCNCC3)c2c1` [11j] gave a melting point greater than 300 °C. For the same compound, in series [1], the IC50 result is listed as “Inactive” and the “GI (%) / percentage of growth inhibition (PGI)” value is listed as “Inactive”.
With `O=c1cc(CN2CCS(=O)(=O)CC2)c2cc(Cl)ccc2o1` [9m], the melting point lay within 162 to 164 °C. The “GI (%) / percentage of growth inhibition (PGI)” value in series [1] was less than 59.9%. Besides, the IC50 in series [1] (setting [2]) is greater than 25 µM.
For `O=c1cc(CN2CCOCC2)c2cc(Cl)ccc2o1` [9k] the same measures were 177 to 178 °C, less than 9.6% and greater than 100 µM.
With `Cc1ccc2oc(=O)cc(CN3CCS(=O)(=O)CC3)c2c1` [10m], the melting point lay within 170 to 172 °C. Also, in series [1], the IC50 entry was “Inactive” and the “GI (%) / percentage of growth inhibition (PGI)” value is given as “Inactive”.
As for `CCc1ccc2oc(=O)cc(CNc3cc(C)cc(C)c3)c2c1` [11f], the melting point fell in the range of 176 to 178 °C. Besides, the “GI (%) / percentage of growth inhibition (PGI)” value in series [1] is recorded as less than 44.3%. For the same compound, the IC50 in series [1] (setting [2]) was greater than 25 µM.
For `Cc1cc(C)cc(NCc2cc(=O)oc3ccc(Cl)cc23)c1` [9f], in that order: 192 to 194 °C, 6.1 ± 1.3% and greater than 100 µM.
For `CN(Cc1cc(=O)oc2ccc(Cl)cc12)c1ccc(Cl)cc1` [9h] the same measures were 185 to 186 °C, less than 48.4% and greater than 25 µM.
For `Cc1ccc2oc(=O)cc(CNc3ccc(Br)cc3)c2c1` [10d] the same measures were 178 to 179 °C, less than 33.1% and greater than 100 µM.
